This passage reports IC50 results from paper PMC2139785 (The Journal of Cell Biology, 1997).

In this experiment the target is p62^cplx-associated PI3-kinase (100-kD catalytic subunit). Put plainly: PI3-kinase lipid kinase assay. It is filed as biochemical, Rattus norvegicus.

The structures appear in SMILES notation.

`COC[C@H]1OC(=O)c2coc3c2[C@@]1(C)C1=C(C3=O)[C@@H]2CCC(=O)[C@@]2(C)C[C@H]1OC(C)=O` [wortmannin] registered an IC50 of around 3.5 µM.

What is called IC50 is the concentration needed to halve the response being measured. Low readings indicate greater potency, high ones weaker potency.
